From patent US20250195521A1 (Revolution Medicines, Inc., priority 2020, published 2025)

Columns and labels:
Assay type in all cases: biochemical
KRAS G13D = KRAS G13D (Homo sapiens (Human), UniProt P01116+P62937, G13D); test: Ras-Raf disruption/FRET/MOA assay (BRAF RBD, Cyclophilin A); details: read-out: KRAS G13D FRET data IC50
Outline: (§1)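 Ras-GMPPNP (12.5 nM), BRAF RBD (50 nM) and 25 μM Cyclophilin A were incubated with compound for 3 h at 25° C, then detected 1.5 h with anti-His Eu and anti-GST APC; IC50 values follow from the reduced TR-FRET ratio.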

KRAS G12V = KRAS G12V (Homo sapiens (Human), UniProt P01116+P62937, G12V); test: as above; details: read-out: KRAS G12V FRET IC50
Outline: as §1

KRAS G12S = KRAS G12S (Homo sapiens (Human), UniProt P01116+P62937, G12S); test: as above; details: read-out: KRAS G12S FRET IC50
Outline: as §1

KRAS G12C = KRAS G12C (Homo sapiens (Human), UniProt P01116+P62937, G12C); test: as above; details: read-out: KRAS G12C FRET IC50
Outline: as §1

NRAS G12C = NRAS G12C (Homo sapiens (Human), UniProt P01111+P62937, G12C); test: as above; details: read-out: NRAS G12C FRET data IC50
Outline: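 TR-FRET readout: anti-His Eu-W1024 (10 nM) and anti-GST allophycocyanin (50 nM) added after 3 h, 25° C compound incubation, then 1.5 h more. Decrease in FRET ratio versus DMSO wells marks Ras:RAF disruption; IC50 reported.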

KRAS G12D = KRAS G12D (Homo sapiens (Human), UniProt P01116+P62937, G12D); test: as above; details: read-out: KRAS G12D FRET IC50
Outline: as §1

KRAS G13C = KRAS G13C (Homo sapiens (Human), UniProt P01116+P62937, G13C); test: as above; details: read-out: KRAS G13C FRET IC50
Outline: as §1

[1] = molecular target: K-Ras G12C(GMP-PNP) binding to BRAF RBD (Homo sapiens (Human), UniProt P01116+P62937, G12C); test: Disruption of BRAF RBD interaction with K-Ras (FRET / MOA assay), K-Ras G12C; details: read-out: KRAS G12C FRET IC50
Outline: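 Cpd 10-pt 3-fold dilution, top 30 μM final; Ras/CypA/BRAF RBD mix 3 h, 25° C. Add anti-His Eu-W1024 10 nM + anti-GST APC 50 nM final, 1.5 h. Readout TR-FRET ratio decrease vs DMSO → IC50.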

KRAS Q61H = KRAS Q61H (Homo sapiens (Human), UniProt P01116+P62937, Q61H); test: Ras-Raf disruption/FRET/MOA assay (BRAF RBD, Cyclophilin A)
Outline: as §1

KRAS G13D, sequence (P01116 other isoform, or with tags, fused parts or gaps G13D): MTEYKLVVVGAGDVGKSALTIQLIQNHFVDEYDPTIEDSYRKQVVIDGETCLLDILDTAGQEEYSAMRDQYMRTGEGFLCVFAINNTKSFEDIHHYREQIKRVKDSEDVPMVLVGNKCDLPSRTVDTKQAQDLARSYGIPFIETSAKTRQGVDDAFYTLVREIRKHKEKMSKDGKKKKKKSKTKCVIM
KRAS G13D, sequence (P62937 whole entry): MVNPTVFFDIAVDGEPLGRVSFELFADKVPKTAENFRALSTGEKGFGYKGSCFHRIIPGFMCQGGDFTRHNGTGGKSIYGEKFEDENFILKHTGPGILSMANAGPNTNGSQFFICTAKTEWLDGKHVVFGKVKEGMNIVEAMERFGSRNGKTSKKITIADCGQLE
KRAS G12C, sequence (P01116-2 other isoform, or with tags, fused parts or gaps G12C): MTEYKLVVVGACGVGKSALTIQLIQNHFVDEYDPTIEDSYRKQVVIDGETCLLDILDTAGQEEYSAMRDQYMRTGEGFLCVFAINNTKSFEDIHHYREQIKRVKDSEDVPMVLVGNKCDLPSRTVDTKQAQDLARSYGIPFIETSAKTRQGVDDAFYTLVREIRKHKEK
KRAS G12C, sequence (P62937 whole entry): as the sequence (P62937 whole entry) above
KRAS G13C, sequence (P01116 other isoform, or with tags, fused parts or gaps G13C): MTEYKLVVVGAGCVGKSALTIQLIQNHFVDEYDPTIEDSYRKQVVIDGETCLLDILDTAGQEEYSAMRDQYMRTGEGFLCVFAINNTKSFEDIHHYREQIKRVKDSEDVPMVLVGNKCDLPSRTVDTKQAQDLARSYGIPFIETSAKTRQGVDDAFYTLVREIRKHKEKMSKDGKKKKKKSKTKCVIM
KRAS G13C, sequence (P62937 whole entry): as the sequence (P62937 whole entry) above
NRAS G12C, sequence (P01111 whole entry G12C): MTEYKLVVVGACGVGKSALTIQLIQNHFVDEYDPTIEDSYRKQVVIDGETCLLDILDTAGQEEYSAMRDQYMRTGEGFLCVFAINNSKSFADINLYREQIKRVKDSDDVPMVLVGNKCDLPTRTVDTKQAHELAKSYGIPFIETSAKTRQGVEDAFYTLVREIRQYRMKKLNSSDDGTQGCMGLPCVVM
NRAS G12C, sequence (P62937 whole entry): as the sequence (P62937 whole entry) above
KRAS G12D, sequence (P01116 other isoform, or with tags, fused parts or gaps G12D): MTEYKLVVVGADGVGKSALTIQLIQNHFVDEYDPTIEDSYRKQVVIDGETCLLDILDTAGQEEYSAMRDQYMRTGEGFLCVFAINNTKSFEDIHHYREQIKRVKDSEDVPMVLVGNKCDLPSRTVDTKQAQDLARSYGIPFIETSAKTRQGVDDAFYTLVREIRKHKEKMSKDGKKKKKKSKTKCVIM
KRAS G12D, sequence (P62937 whole entry): as the sequence (P62937 whole entry) above
KRAS G12S, sequence (P01116 other isoform, or with tags, fused parts or gaps G12S): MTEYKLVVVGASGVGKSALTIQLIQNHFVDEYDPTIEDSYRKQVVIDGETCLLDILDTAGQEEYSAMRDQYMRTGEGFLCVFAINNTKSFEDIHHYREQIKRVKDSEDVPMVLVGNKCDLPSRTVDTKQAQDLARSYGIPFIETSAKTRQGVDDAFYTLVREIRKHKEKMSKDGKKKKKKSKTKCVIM
KRAS G12S, sequence (P62937 whole entry): as the sequence (P62937 whole entry) above
KRAS G12V, sequence (P01116 other isoform, or with tags, fused parts or gaps G12V): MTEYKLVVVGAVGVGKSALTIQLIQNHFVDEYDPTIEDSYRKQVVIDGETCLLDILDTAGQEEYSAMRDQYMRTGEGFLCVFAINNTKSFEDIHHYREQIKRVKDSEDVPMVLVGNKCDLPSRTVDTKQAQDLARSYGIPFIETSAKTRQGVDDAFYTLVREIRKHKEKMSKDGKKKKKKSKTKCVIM
KRAS G12V, sequence (P62937 whole entry): as the sequence (P62937 whole entry) above
K-Ras G12C(GMP-PNP) binding to BRAF RBD, sequence (P01116 other isoform, or with tags, fused parts or gaps G12C): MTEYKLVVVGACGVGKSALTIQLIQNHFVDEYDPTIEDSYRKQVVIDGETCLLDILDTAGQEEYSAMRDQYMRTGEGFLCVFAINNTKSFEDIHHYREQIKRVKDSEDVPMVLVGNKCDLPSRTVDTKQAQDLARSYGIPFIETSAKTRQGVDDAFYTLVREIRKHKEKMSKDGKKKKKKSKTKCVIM
K-Ras G12C(GMP-PNP) binding to BRAF RBD, sequence (P62937 whole entry): as the sequence (P62937 whole entry) above
KRAS Q61H, sequence (P01116 other isoform, or with tags, fused parts or gaps Q61H): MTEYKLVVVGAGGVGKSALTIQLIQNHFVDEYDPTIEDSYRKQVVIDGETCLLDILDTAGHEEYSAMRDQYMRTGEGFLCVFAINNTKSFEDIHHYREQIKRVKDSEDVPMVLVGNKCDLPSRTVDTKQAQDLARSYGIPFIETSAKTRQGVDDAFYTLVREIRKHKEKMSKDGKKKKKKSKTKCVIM
KRAS Q61H, sequence (P62937 whole entry): as the sequence (P62937 whole entry) above

IC50 (KRAS G13D) [µM] | IC50 (KRAS G12V) [µM] | IC50 (KRAS G12S) [µM] | IC50 (KRAS G12C) [µM] | IC50 (NRAS G12C) [µM] | IC50 (KRAS G12D) [µM] | IC50 (KRAS G13C) [µM] | IC50 [1] [µM] | Compound | IC50 (KRAS Q61H) [µM]
0.1 to 1 | 0.01 to 0.1 | 0.01 to 0.1 | 0.01 to 0.1 | 0.01 to 0.1 | 0.1 to 1 | 0.1 to 1 |  | CCn1c(-c2cccnc2[C@H](C)OC)c2c3cc(ccc31)-c1cc(O)cc(c1)C[C@H](NC(=O)[C@H](C(C)C)N(C)C(=O)[C@H]1CCN(C(C)=O)C1)C(=O)N1CCC[C@H](N1)C(=O)OCC(C)(C)C2 [Compound A5] | 
1 to 10 | 1 to 10 | 1 to 10 | 0.1 to 1 | 0.1 to 1 | 1 to 10 | 1 to 10 |  | CCn1c(-c2cccnc2[C@H](C)OC)c2c3cc(ccc31)-c1csc(n1)C[C@H](NC(=O)[C@H](C(C)C)N(C)C(=O)[C@H]1CCN(C(=O)CN(C)C)C1)C(=O)N1CCC[C@H](N1)C(=O)OCC(C)(C)C2 [Compound A97] | 
0.1 to 1 | > 10 | 0.1 to 1 | 1 to 10 | 1 to 10 | 1 to 10 | 0.1 to 1 | 0.1 to 1 | CCn1c(-c2cccnc2[C@H](C)OC)c2c3cc(ccc31)-c1cccc(c1)C[C@H](NC(=O)[C@H](C(C)C)N(C)C(=O)[C@H]1CCNC1)C(=O)N1CCC[C@H](N1)C(=O)OCC(C)(C)C2 [Compound A119] | 
1 to 10 | 1 to 10 | 1 to 10 | 1 to 10 | 1 to 10 | > 10 | 0.1 to 1 | 0.01 to 0.1 | CCn1c(-c2cccnc2[C@H](C)OC)c2c3cc(ccc31)-c1cc(O)cc(c1)C[C@H](NC(=O)C(=C(C)C)N(C)C(C)=O)C(=O)N1CCC[C@H](N1)C(=O)OCC(C)(C)C2 [Compound A142] | 
1 to 10 | > 10 | 1 to 10 | 1 to 10 | 1 to 10 | 1 to 10 | 0.1 to 1 | < 0.01 | CCn1c(-c2cccnc2[C@H](C)OC)c2c3cc(ccc31)-c1cc(O)cc(c1)C[C@H](NC(=O)[C@H](C(C)C)N(C)C(=O)[C@H]1CCN(C3CC3)C1)C(=O)N1CCC[C@H](N1)C(=O)OCC(C)(C)C2 [Compound A175] | 
1 to 10 | 1 to 10 | 1 to 10 | 1 to 10 | 1 to 10 | > 10 | 1 to 10 | < 0.01 | CCn1c(-c2cccnc2[C@H](C)OC)c2c3cc(ccc31)-c1cccc(c1)C[C@H](NC(=O)[C@H](C(C)C)N(C)C(=O)C1COC1)C(=O)N1CCC[C@H](N1)C(=O)OCC(C)(C)C2 [Compound A246] | 
1 to 10 | 1 to 10 | 1 to 10 | 1 to 10 | 1 to 10 | > 10 | 1 to 10 | < 0.01 | CCn1c(-c2cccnc2[C@H](C)OC)c2c3cc(ccc31)-c1csc(n1)C[C@H](NC(=O)[C@H](C(C)C)N1CCCN(C)C1=O)C(=O)N1CCC[C@H](N1)C(=O)OCC(C)(C)C2 [Compound A317] | 
0.1 to 1 | 0.1 to 1 | 0.01 to 0.1 | 0.01 to 0.1 | 0.01 to 0.1 | 0.1 to 1 | 0.01 to 0.1 | < 0.01 | CCN(CC)C(=O)N(C)[C@H](C(=O)N[C@H]1Cc2nc(cs2)-c2ccc3c(c2)c(c(-c2cccnc2[C@H](C)OC)n3CC)CC(C)(C)COC(=O)[C@@H]2CCCN(N2)C1=O)C(C)C [Compound A351] | 
0.01 to 0.1 | 0.1 to 1 | 0.01 to 0.1 | 0.01 to 0.1 | 0.01 to 0.1 | 0.01 to 0.1 | 0.01 to 0.1 | 0.1 to 1 | CCn1c(-c2cccnc2[C@H](C)OC)c2c3cc(ccc31)-c1cc(O)cc(c1)C[C@H](NC(=O)[C@H](C(C)C)N(C)C(=O)[C@@H]1CCCC[C@@H]1N)C(=O)N1CCC[C@H](N1)C(=O)OCC(C)(C)C2 [Compound A395] | 
0.1 to 1 | 0.1 to 1 | 0.1 to 1 | 0.1 to 1 | 0.1 to 1 | 1 to 10 | 0.1 to 1 | < 0.01 | CCn1c(-c2cccnc2[C@H](C)OC)c2c3cc(ccc31)-c1csc(n1)C[C@H](NC(=O)[C@H](C(C)C)N(C)C(=O)N1CCOC[C@@H]1C)C(=O)N1CCC[C@H](N1)C(=O)OCC(C)(C)C2 [Compound A403] | 
0.1 to 1 | 1 to 10 | 0.1 to 1 | 0.1 to 1 | 0.1 to 1 | 0.1 to 1 | 0.1 to 1 | 0.1 to 1 | CCn1c(-c2cccnc2[C@H](C)OC)c2c3cc(ccc31)-c1cc(O)cc(c1)C[C@H](NC(=O)[C@H](C(C)C)N(C)C(=O)C1CN3CCCN1CC3)C(=O)N1CCC[C@H](N1)C(=O)OCC(C)(C)C2 (stereo partly shown) [Compound A404] | 
 | 0.1 to 1 | 0.01 to 0.1 | 0.01 to 0.1 | 0.01 to 0.1 | 0.1 to 1 | 0.1 to 1 | < 0.01 | CCn1c(-c2cccnc2[C@H](C)OC)c2c3cc(ccc31)-c1cc(O)cc(c1)C[C@H](NC(=O)[C@H](C(C)C)N(C)C(=O)C13CCC(CO1)C3)C(=O)N1CCC[C@H](N1)C(=O)OCC(C)(C)C2 [Compound A411] | 
0.1 to 1 | 1 to 10 | 0.1 to 1 | 0.1 to 1 | 0.1 to 1 | 0.1 to 1 | 0.1 to 1 | 0.01 to 0.1 | CCn1c(-c2cccnc2[C@H](C)OC)c2c3cc(ccc31)-c1cc(O)cc(c1)C[C@H](NC(=O)[C@H](C(C)C)N(C)C(=O)[C@@H]1[C@H]3CC[C@H](C3)[C@@H]1N)C(=O)N1CCC[C@H](N1)C(=O)OCC(C)(C)C2 [Compound A417] | 
1 to 10 | 0.1 to 1 | 1 to 10 | 0.1 to 1 | 1 to 10 | 1 to 10 | 0.1 to 1 | < 0.01 | CCn1c(-c2cccnc2[C@H](C)OC)c2c3cc(ccc31)-c1cc(O)cc(c1)C[C@H](NC(=O)[C@H](C(C)C)N(C)C(=O)[C@H]1OCC[C@H]1c1ccccc1)C(=O)N1CCC[C@H](N1)C(=O)OCC(C)(C)C2 [Compound A425] | 

Compound | IC50 (KRAS G13D) [µM] | IC50 (KRAS G12V) [µM] | IC50 (KRAS G12S) [µM] | IC50 (KRAS G12C) [µM] | IC50 (NRAS G12C) [µM] | IC50 (KRAS G12D) [µM] | IC50 (KRAS G13C) [µM] | IC50 [1] [µM] | IC50 (KRAS Q61H) [µM]
CCn1c(-c2cccnc2[C@H](C)OC)c2c3cc(ccc31)-c1cc(cc3nc[nH]c13)C[C@H](NC(=O)[C@H](C(C)C)N(C)C(C)=O)C(=O)N1CCC[C@H](N1)C(=O)OCC(C)(C)C2 [Compound A153] | > 10 | > 10 | > 10 |  | > 10 | > 10 | > 10 | 0.01 to 0.1 | 
CCn1c(-c2cccnc2[C@H](C)OC)c2c3cc(ccc31)-c1cc(cc(S(C)(=O)=O)c1)C[C@H](NC(=O)[C@H](C(C)C)N(C)C(C)=O)C(=O)N1CCC[C@H](N1)C(=O)OCC(C)(C)C2 [Compound A154] | > 10 | > 10 | > 10 |  | > 10 | > 10 | > 10 | 0.01 to 0.1 | 
CCn1c(-c2cc(N3CCN(C)CC3)cnc2[C@H](C)OC)c2c3cc(ccc31)-c1nc(co1)C[C@H](NC(=O)[C@H]1[C@H](C)[C@@H]1C)C(=O)N1CCC[C@H](N1)C(=O)OCC(C)(C)C2 [Compound A391, (1r,2R,3S)—N-((6^3S,4S,Z)-1^1-ethyl-1^2-(2-((S)-1-methoxyethyl)-5-(4-methylpiperazin-1-yl)pyridin-3-yl)-10,10-dimethyl-5,7-dioxo-6^1,6^2,6^3,6^4,6^5,6^6-hexahydro-1^1H-8-oxa-2 (2,4)-oxazola-1 (5,3)-indola-6 (1,3)-pyridazinacycloundecaphane-4-yl)-2,3-dimethylcyclopropane-1-carboxamide] |  | 0.01 to 0.1 | 0.01 to 0.1 | 0.01 to 0.1 |  | 0.01 to 0.1 | 0.01 to 0.1 | < 0.01 | 
CCO[C@@H]1c2nc(cs2)-c2ccc3c(c2)c(c(-c2cc(C4CCN(C5COC5)CC4)cnc2[C@H](C)OC)n3CC)CC(C)(C)COC(=O)[C@@H]2CCCN(N2)C(=O)[C@H]1NC(=O)[C@H]1[C@H](C)[C@@H]1C [Compound A449, (1r,2R,3S)—N-((6^3S,3S,4S,Z)-3-ethoxy-1^1-ethyl-1^2-(2-((S)-1-methoxyethyl)-5-(1-(oxetan-3-yl)piperidin-4-yl)pyridin-3-yl)-10,10-dimethyl-5,7-dioxo-6^1,6^2,6^3,6^4,6^5,6^6-hexahydro-1^1H-8-oxa-2 (4,2)-thiazola-1 (5,3)-indola-6 (1,3)-pyridazinacycloundecaphane-4-yl)-2,3-dimethylcyclopropane-1-carboxamide] |  | 1 to 10 | 1 to 10 | 0.1 to 1 |  | 1 to 10 | 0.1 to 1 | 0.1 to 1 | 0.1 to 1
